{
  "source": "paper PMC5505654",
  "about": "(European journal of medicinal chemistry, 2017)",
  "key": {"[1]": {"biological_target": "AM2-S31N mutant of the A/M2 proteins (Influenza A virus, UniProt P0DOF5, S31N)", "format": "biochemical", "details": "pH 5.5"}, "A/WSN/33 (H1N1) virus": {"system": "A/WSN/33 (H1N1) virus", "format": "cell-based, influenza A virus"}},
  "data": [
    {"smiles": "CC(C)[Si](c1ccc(CNC23CC4CC(CC(O)(C4)C2)C3)cc1)(C(C)C)C(C)C", "note": "[Compound 5f]", "values": [
      {"measurement": "% AM2-S31N inhibition", "setting": "[1]", "result": "inactive"},
      {"measurement": "A/WSN/33 EC50", "setting": "A/WSN/33 (H1N1) virus", "result": "inactive"}
    ]}
  ]
}
